Target: CK2A1 (CK2α/β) (Homo sapiens, UniProt P68400)
Assay: CK2 kinase assay, CK2A1 (CK2α/β)
Type: biochemical
Conditions: Table A; read-out: CK2A1 (CK2α/β) (IC50)

CK2A1 (CK2α/β), sequence (P68400 whole entry, species assumed): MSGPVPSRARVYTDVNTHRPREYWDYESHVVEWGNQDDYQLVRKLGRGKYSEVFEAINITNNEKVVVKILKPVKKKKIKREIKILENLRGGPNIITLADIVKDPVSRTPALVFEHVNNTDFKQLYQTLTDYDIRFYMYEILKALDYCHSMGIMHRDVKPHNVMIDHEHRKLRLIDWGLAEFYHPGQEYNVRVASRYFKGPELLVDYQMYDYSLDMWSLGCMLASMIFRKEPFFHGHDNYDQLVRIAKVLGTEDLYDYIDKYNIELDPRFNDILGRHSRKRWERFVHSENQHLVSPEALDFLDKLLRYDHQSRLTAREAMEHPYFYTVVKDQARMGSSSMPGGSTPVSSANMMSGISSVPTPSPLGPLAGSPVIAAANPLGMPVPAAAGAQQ
CK2A1 (CK2α/β), sequence (P67870 whole entry partner, species assumed): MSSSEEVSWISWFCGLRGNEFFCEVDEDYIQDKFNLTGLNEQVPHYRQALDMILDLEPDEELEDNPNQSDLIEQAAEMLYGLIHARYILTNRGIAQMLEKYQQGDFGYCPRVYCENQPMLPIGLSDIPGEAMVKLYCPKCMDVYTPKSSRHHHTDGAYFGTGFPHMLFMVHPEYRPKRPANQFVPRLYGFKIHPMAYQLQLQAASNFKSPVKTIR

IC50	SMILES
3.95 nM	COC1CN(CCCCc2cc(Cl)c(Nc3nc(NC4CC4)c4ncc(C#N)n4n3)cc2C#N)C1 [Example 571, 2-((2-chloro-5-cyano-4-(4-(3-methoxyazetidin-1-yl)butyl)phenyl)amino)-4-(cyclopropylamino)imidazo[2,1-f][1,2,4]triazine-7-carbonitrile]
0.65 nM	CN(C)Cc1cc(C#N)cc(Nc2nc(NC3CC3)c3ncc(C#N)n3n2)c1Cl [Example 667, 2-((2-chloro-5-cyano-3-((dimethylamino)methyl)phenyl)amino)-4-(cyclopropylamino)imidazo[2,1-f][1,2,4]triazine-7-carbonitrile]
0.72 nM	CCNc1nc(Nc2ccc3c(c2)c(C#N)cn3C2CCN([C@H]3CS(=O)(=O)C[C@H]3O)CC2)nn2c(C#N)cnc12 [Example 829, 2-((3-cyano-1-(1-((3R,4S)-4-hydroxy-1,1-dioxidotetrahydrothiophen-3-yl)piperidin-4-yl)-1H-indol-5-yl)amino)-4-(ethylamino)imidazo[2,1-f][1,2,4]triazine-7-carbonitrile]
1.4 nM	COC(=O)N[C@H]1CCN(c2cc(C#N)cc(Nc3nc(NC4CC4)c4ncc(C#N)n4n3)c2Cl)C[C@@H]1NCC(F)F [Example 748, methyl ((3S,4S)-1-(2-chloro-5-cyano-3-((7-cyano-4-(cyclopropylamino)imidazo[2,1-f][1,2,4]triazin-2-yl)amino)phenyl)-3-((2,2-difluoroethyl)amino)piperidin-4-yl)carbamate]
1.59 nM	CC(CCNCCC(F)(F)F)c1cc(C#N)cc(Nc2nc(NC3CC3)c3ncc(C#N)n3n2)c1Cl (centres unmarked) [Example 576, 2-((2-chloro-5-cyano-3-(4-((3,3,3-trifluoropropyl)amino)butan-2-yl)phenyl)amino)-4-(cyclopropylamino)imidazo[2,1-f][1,2,4]triazine-7-carbonitrile]
1.87 nM	CC(c1cc(C#N)cc(Nc2nc(NC3CC3)c3ncc(C#N)n3n2)c1Cl)N1CCN(S(C)(=O)=O)CC1 (racemic) [Example 678]
1.83 nM	CCNc1nc(Nc2cc(C#N)cc(N3CC[C@@H]4[C@@H](C3)OC(=O)N4[C@H]3CCOC3)c2Cl)nn2c(C#N)cnc12 (single isomer, unassigned) [Example 844]
1.09 nM	N#Cc1cc(Nc2nc(NC3CC3)c3ncc(C#N)n3n2)c(Cl)c(N2CCN(CC(O)CF)CC2=O)c1 (racemic) [Example 622, (+/−)-2-((2-chloro-5-cyano-3-(4-(3-fluoro-2-hydroxypropyl)-2-oxopiperazin-1-yl)phenyl)amino)-4-(cyclopropylamino)imidazo[2,1-f][1,2,4]triazine-7-carbonitrile]
0.54 nM	CCNc1nc(Nc2ccc3c(c2)c(C#N)cn3C2CCN(C3CNC3)CC2)nn2c(C#N)cnc12 [Example 832, 2-((1-(1-(azetidin-3-yl)piperidin-4-yl)-3-cyano-1H-indol-5-yl)amino)-4-(ethylamino)imidazo[2,1-f][1,2,4]triazine-7-carbonitrile]
3.76 nM	CCNc1nc(Nc2cc(C#N)cc(N3CCC4(CC3)CC(=O)N(C)C4)c2Cl)nn2c(C#N)cnc12 (racemic) [Example 783, (+/−)-2-((2-chloro-5-cyano-3-(2-methyl-3-oxo-2,8-diazaspiro[4.5]decan-8-yl)phenyl)amino)-4-(ethylamino)imidazo[2,1-f][1,2,4]triazine-7-carbonitrile]
6.9 nM	CC(C(N)=O)N1CC2(CCN(c3cc(C#N)cc(Nc4nc(NC5CC5)c5ncc(C#N)n5n4)c3Cl)CC2)C1 (racemic) [Example 802, (+/−)-2-(7-(2-chloro-5-cyano-3-((7-cyano-4-(cyclopropylamino)imidazo[2,1-f][1,2,4]triazin-2-yl)amino)phenyl)-2,7-diazaspiro[3.5]nonan-2-yl)propanamide]
5.55 nM	N#Cc1cc(Nc2nc(NC3CC3)c3ncc(C#N)n3n2)c(F)c(N2CCN([C@@H]3CS(=O)(=O)C[C@H]3O)CC2)c1 (racemic) [Example 553, rac-2-((5-cyano-2-fluoro-3-(4-((3R,4R)-4-hydroxy-1,1-dioxidotetrahydrothiophen-3-yl)piperazin-1-yl)phenyl)amino)-4-(cyclopropylamino)imidazo[2,1-f][1,2,4]triazine-7-carbonitrile]
0.71 nM	CCNc1nc(Nc2ccc3c(c2)c(C#N)cn3C2CCN(C3CN(C(=O)OC(C)(C)C)C3)CC2)nn2c(C#N)cnc12 [Example 831, tert-butyl 3-(4-(3-cyano-5-((7-cyano-4-(ethylamino)imidazo[2,1-f][1,2,4]triazin-2-yl)amino)-1H-indol-1-yl)piperidin-1-yl)azetidine-1-carboxylate]

The next lines start with the compound.

SMILES	IC50
CO[C@H](C)C(=O)N1CC(N2CCN(c3cc(C#N)cc(Nc4nc(NC5CC5)c5ncc(C#N)n5n4)c3Cl)CC2)C1 [Example 513, 2-{[2-chloro-5-cyano-3-(4-{1-[(2R)-2-methoxypropanoyl]azetidin-3-yl}piperazin-1-yl)phenyl]amino}-4-(cyclopropylamino)imidazo[2,1-f][1,2,4]triazine-7-carbonitrile]	3.08 nM
N#Cc1cc(Nc2nc(NC3CC3)c3ncc(C#N)n3n2)c(Cl)c(C2CCN(C(=O)CC(F)(F)F)CC2)c1 [Example 237, 2-((2-chloro-5-cyano-3-(1-(3,3,3-trifIuoropropanoyl)-4-piperidinyl)phenyl)amino)-4-(cyclopropylamino)imidazo[2,1-f][1,2,4]triazine-7-carbonitrile]	0.41 nM
COCC(O)CN1CCN(c2cc(C(F)F)cc(Nc3nc(NC4CC4)c4ncc(C#N)n4n3)c2Cl)CC1 (racemic) [Example 250, (+/−) 2-((2-chloro-5-(difluoromethyl)-3-(4-(2-hydroxy-3-methoxypropyl)-1-piperazinyl)phenyl)amino)-4-(cyclopropylamino)imidazo[2,1-f][1,2,4]triazine-7-carbonitrile]	0.73 nM
N#Cc1cc(C=O)c(Cl)c(Nc2nc(NC3CC3)c3ncc(C#N)n3n2)c1 [Example 400, 2-((2-chloro-5-cyano-3-formylphenyl)amino)-4-(cyclopropylamino)imidazo[2,1-f][1,2,4]triazine-7-carbonitrile]	0.49 nM
CC(C)(N)C(=O)N1CCC(c2cc(C#N)cc(Nc3nc(NC4CC4)c4ncc(C#N)n4n3)c2Cl)CC1 [Example 239, 2-((2-chloro-5-cyano-3-(1-(2-methylalanyl)-4-piperidinyl)phenyl)amino)-4-(cyclopropylamino)imidazo[2,1-f][1,2,4]triazine-7-carbonitrile]	0.49 nM
CC(C)(O)C1CCN(C2CN(c3cc(C#N)cc(Nc4nc(NC5CC5)c5ncc(C#N)n5n4)c3Cl)C2)CC1 [Example 158]	0.65 nM
N#Cc1cc(Nc2nc(NC3CC3)c3ncc(C#N)n3n2)c(Cl)c(OC2CCN(C3COC3)CC2)c1 [Example 425, 2-((2-chloro-5-cyano-3-((1-(oxetan-3-yl)piperidin-4-yl)oxy)phenyl)amino)-4-(cyclopropylamino)imidazo[2,1-f][1,2,4]triazine-7-carbonitrile]	0.73 nM
N#Cc1cc(Nc2nc(NC3CC3)c3ncc(C#N)n3n2)c(Cl)c(N2CCN(CC(F)F)CC2)c1 [Example 52, 2-((2-chloro-5-cyano-3-(4-(2,2-difluoroethyl)-1-piperazinyl)phenyl)amino)-4-(cyclopropylamino)imidazo[2,1-f][1,2,4]triazine-7-carbonitrile]	0.66 nM
N#Cc1cc(Nc2nc(NC3CC3)c3ncc(C#N)n3n2)c(Cl)c(N2CCN(C3CN(C(=O)CCO)C3)CC2)c1 [Example 495, 2-[(2-chloro-5-cyano-3-{4-[1-(3-hydroxypropanoyl)azetidin-3-yl]piperazin-1-yl}phenyl)amino]-4-(cyclopropylamino)imidazo[2,1-f][1,2,4]triazine-7-carbonitrile]	4.89 nM
CCNc1nc(Nc2cc(C#N)cc(C3CN(C4COC4)C3)c2Cl)nn2c(C#N)cnc12 [Example 359, 2-((2-chloro-5-cyano-3-(1-(oxetan-3-yl)azetidin-3-yl)phenyl)amino)-4-(ethylamino)imidazo[2,1-f][1,2,4]triazine-7-carbonitrile]	1.58 nM
N#Cc1cc(CN2CCC(F)(F)CC2)c(Cl)c(Nc2nc(NC3CC3)c3ncc(C#N)n3n2)c1 [Example 477, 2-({2-chloro-5-cyano-3-[(4,4-difluoropiperidin-1-yl)methyl]phenyl}amino)-4-(cyclopropylamino)imidazo[2,1-f][1,2,4]triazine-7-carbonitrile]	2.43 nM
N#Cc1cc(Nc2nc(NC3CC3)c3ncc(C#N)n3n2)c(Cl)c(N2CCN(C3CN(C(=O)[C@@H]4C[C@@H](O)CN4)C3)CC2)c1 [Example 498, 2-{[2-chloro-5-cyano-3-(4-{1-[(2S,4R)-4-hydroxypyrrolidine-2-carbonyl]azetidin-3-yl}piperazin-1-yl)phenyl]amino}-4-(cyclopropylamino)imidazo[2,1-f][1,2,4]triazine-7-carbonitrile]	5.48 nM
CN1CCN(C2CN(c3cc(C#N)cc(Nc4nc(NC5CC5)c5ncc(C#N)n5n4)c3Cl)C2)CC1=O [Example 156, 2-((2-chloro-5-cyano-3-(3-(4-methyl-3-oxo-1-piperazinyl)-1-azetidinyl)phenyl)amino)-4-(cyclopropylamino)imidazo [2,1-f][1,2,4]triazine-7-carbonitrile]	0.36 nM
C[C@@H]1CN(c2cc(C#N)cc(Nc3nc(NC4CC4)c4ncc(C#N)n4n3)c2Cl)C[C@H](C)N1C [Example 24, (+/−) 2-((2-chloro-5-cyano-3-((3R,5S)-3,4,5-trimethyl-1-piperazinyl)phenyl)amino)-4-(cyclopropylamino)imidazo [2,1-f][1,2,4]triazine-7-carbonitrile]	1 nM
COC(=O)N[C@@H]1CN(c2cc(C#N)cc(Nc3nc(NC4CC4)c4ncc(C#N)n4n3)c2Cl)CC[C@H]1O (racemic) [Example 191, (+/−)-methyl ((3R,4R)-1-(2-chloro-5-cyano-3-((7-cyano-4-(cyclopropylamino)imidazo[2,1-f][1,2,4]triazin-2-yl)amino)phenyl)-4-hydroxypiperidin-3-yl)carbamate]	0.66 nM
CCNc1nc(Nc2cc(C#N)cc(C3CN(C[C@H](C)O)C3)c2Cl)nn2c(C#N)cnc12 [Example 368, (S)-2-((2-chloro-5-cyano-3-(1-(2-hydroxypropyl)azetidin-3-yl)phenyl)amino)-4-(ethylamino)imidazo[2,1-f][1,2,4]triazine-7-carbonitrile]	3.62 nM

— patent US9273057B2 (Bristol-Myers Squibb Company, priority 2012, dated 2016)
